From US5670482A, “Neuropeptide Y antagonists” (Glaxo Wellcome Inc., priority 1992, dated 1997)
Positions of bridges follow the written chain, without caps; N, C: chain ends. Non-standard residues stand in square brackets, D forms with d. Residues, ends and D or L forms follow the SMILES beside them. Chains are numbered I, II in the order given. *: point of attachment. Desaminotyrosyl = O=C(CCc1ccc(O)cc1)*; Orn = NCCC[C@H](N)C(=O)O; Dap = NC[C@H](N)C(=O)O; X1 = Clc1cccc(Cl)c1C*; Aib = CC(C)(N)C(=O)O

Experiments:
[1] = system: Human erythroleukemic (HEL) cells; assay: Intracellular calcium measurements in HEL cells (Fura-2); type: cell-based; details: for HEL CELLS % Fluor (c): agonistic activity: fluorescence induced by 100 nM of the peptide; for IC50: antagonism of 5 nM NPY-induced calcium signal, read-out: HEL CELLS IC50 (d); for HEL CELLS % INHIB (b): inhibition of increase in HEL cell intracellular calcium induced by 5 nM NPY, 100 nM compound
Procedure: Human erythroleukemic (HEL) cells were loaded with Fura-2 (1 μM for 1 h), washed and then placed in a cuvette (5×10^5 cells in 2.5 ml) and excited simultaneously at 340 and 380 nm in a SLM spectrofluorometer. Fluorescence changes after the addition of NPY and/or peptide analogs were followed by recording emission at 510 nm. Calcium concentrations can be determined through a computer programme by using the ratio of fluorescence 340/380 nm. The agonistic activity of peptide analogs was tested by recording the fluorescence induced upon stimulation of the cells with 100 nM of the peptide and the antagonistic activity by observing the decrease in fluorescence induced by 5 nM NPY in the presence of the analog The results where available are indicated in column (c) of the Table.
The inhibition of the increase in the HEL cell intracellular calcium (induced by 5 nM NPY) achieved by 100 nM concentrations of each compound is shown in column (b) of the Table.

[2] = biological target: NPY receptors in rat brain membranes; assay: Radioreceptor binding assay (3H-NPY, rat brain membranes); details: 37° C.
Procedure: Rat brain membranes were incubated with ^3 H-NPY up to equilibrium at 37° C. in the presence of several peptides at different concentrations and in a final volume of 1 ml. Non-specific binding was determined by adding 100 nM of cold NPY. At the end of the incubation period the samples were either filtered (GF/C filter), or 0.5 ml of cold incubation buffer was added and the tubes centrifuged at 15,000 g for 10 min. The supernatant was discarded and the pellet or filters resuspended and counted by liquid scintillation. Results were processed using a computer programme that calculated IC50, Kd, Bmax and Hill coefficient by linear regression. IC50 results where available are shown in column (a) of the Table.

| IC50 [1] [nM] | IC50 [2] [nM] | Compound | HEL CELLS % Fluor (c) [1] [%] | HEL CELLS % INHIB (b) [1] [%] |
| --- | --- | --- | --- | --- |
| 5 | 280 | CC[C@H](C)[C@H](N)C(=O)N[C@@H](CC(N)=O)C(=O)N1CCC[C@H]1C(=O)N[C@H](C(=O)N[C@@H](Cc1ccc(O)cc1)C(=O)N[C@@H](CCCNC(=N)N)C(=O)N[C@@H](CC(C)C)C(=O)N[C@@H](CCCNC(=N)N)C(=O)N[C@@H](Cc1ccc(O)cc1)C(N)=O)[C@@H](C)OC [Example 2, IleAsnPro(O-MethylThr)TyrArgLeuArgTyr-NH2] (H-INPT(Me)YRLRY-NH2) | 0 | 100 |
| 8 | 350 | CC[C@H](C)[C@H](N)C(=O)N[C@@H](CC(N)=O)C(=O)N1CCC[C@H]1C(=O)NC(C)(C)C(=O)N[C@@H](Cc1ccc(OCc2c(Cl)cccc2Cl)cc1)C(=O)N[C@@H](CCCNC(=N)N)C(=O)N[C@@H](CC(C)C)C(=O)N[C@@H](CCCNC(=N)N)C(=O)N[C@@H](Cc1ccc(O)cc1)C(N)=O [Example 3, IleAsnProAib[O-(2,6-Dichlorobenzyl)Tyr]ArgLeuArgTyr-NH2] (H-INP[Aib]Y(X1)RLRY-NH2; N-terminus assumed) | 0 | 100 |
| 1.5 | 15 | CC[C@H](C)[C@H](N)C(=O)N[C@H]1CC(=O)NC[C@@H](C(=O)N[C@@H](Cc2ccc(O)cc2)C(=O)N[C@@H](CCCNC(=N)N)C(=O)N[C@@H](CC(C)C)C(=O)N[C@@H](CCCNC(=N)N)C(=O)N[C@@H](Cc2ccc(O)cc2)C(N)=O)NC(=O)[C@@H]2CCCN2C(=O)[C@@H](NC(=O)[C@@H](N)[C@@H](C)CC)CC(=O)NC[C@@H](C(=O)N[C@@H](Cc2ccc(O)cc2)C(=O)N[C@@H](CCCNC(=N)N)C(=O)N[C@@H](CC(C)C)C(=O)N[C@@H](CCCNC(=N)N)C(=O)N[C@@H](Cc2ccc(O)cc2)C(N)=O)NC(=O)[C@@H]2CCCN2C1=O [Example 7, IleAspProDprTyrArgLeuArgTyr-NH2,Cyclic(2,4'),(2',4)-Diamide] (I: H-IDP[Dap]YRLRY-NH2 / II: H-IDP[Dap]YRLRY-NH2; amide I:2-II:4, I:4-II:2; N-terminus assumed) | 0 | 100 |
| 2.5 | 7.5 | CC[C@H](C)[C@H](N)C(=O)N[C@H]1CNC(=O)C[C@@H](C(=O)N[C@@H](Cc2ccc(O)cc2)C(=O)N[C@@H](CCCNC(=N)N)C(=O)N[C@@H](CC(C)C)C(=O)N[C@@H](CCCNC(=N)N)C(=O)N[C@@H](Cc2ccc(O)cc2)C(N)=O)NC(=O)[C@@H]2CCCN2C(=O)[C@@H](NC(=O)[C@@H](N)[C@@H](C)CC)CNC(=O)C[C@@H](C(=O)N[C@@H](Cc2ccc(O)cc2)C(=O)N[C@@H](CCCNC(=N)N)C(=O)N[C@@H](CC(C)C)C(=O)N[C@@H](CCCNC(=N)N)C(=O)N[C@@H](Cc2ccc(O)cc2)C(N)=O)NC(=O)[C@@H]2CCCN2C1=O [Example 8, IleDprProAspTyrArgLeuArgTyr-NH2,Cyclic(2,4'),(2',4)-Diamide] (I: H-I[Dap]PDYRLRY-NH2 / II: H-I[Dap]PDYRLRY-NH2; amide I:2-II:4, I:4-II:2; N-terminus assumed) | 0 | 100 |
| 0.75 | 35 | CC[C@H](C)[C@H](N)C(=O)N[C@@H](CSSC[C@H](NC(=O)[C@@H](N)[C@@H](C)CC)C(=O)N1CCC[C@H]1C(=O)N[C@H](C(=O)N[C@@H](Cc1ccc(O)cc1)C(=O)N[C@@H](CCCNC(=N)N)C(=O)N[C@@H](CC(C)C)C(=O)N[C@@H](CCCNC(=N)N)C(=O)N[C@@H](Cc1ccc(O)cc1)C(N)=O)[C@@H](C)CC)C(=O)N1CCC[C@H]1C(=O)N[C@H](C(=O)N[C@@H](Cc1ccc(O)cc1)C(=O)N[C@@H](CCCNC(=N)N)C(=O)N[C@@H](CC(C)C)C(=O)N[C@@H](CCCNC(=N)N)C(=O)N[C@@H](Cc1ccc(O)cc1)C(N)=O)[C@@H](C)CC [Example 13, (IleCysProIleTyrArgLeuArgTyr-NH2)2] (I: H-ICPIYRLRY-NH2 / II: H-ICPIYRLRY-NH2; disulfide I:2-II:2 (inferred); N-terminus assumed) | 0 | 100 |
| 5 | 1.9 | CC[C@H](C)[C@H](N)C(=O)N[C@@H](CC(N)=O)C(=O)N1CCC[C@H]1C(=O)NC(CCCC(NC(=O)[C@@H]1CCCN1C(=O)[C@H](CC(N)=O)NC(=O)[C@@H](N)[C@@H](C)CC)C(=O)N[C@@H](Cc1ccc(O)cc1)C(=O)N[C@@H](CCCNC(=N)N)C(=O)N[C@@H](CC(C)C)C(=O)N[C@@H](CCCNC(=N)N)C(=O)N[C@@H](Cc1ccc(O)cc1)C(N)=O)C(=O)N[C@@H](Cc1ccc(O)cc1)C(=O)N[C@@H](CCCNC(=N)N)C(=O)N[C@@H](CC(C)C)C(=O)N[C@@H](CCCNC(=N)N)C(=O)N[C@@H](Cc1ccc(O)cc1)C(N)=O (stereo partly drawn) [Example 14, IleAsnPro TyrArgLeuArgTyr-NH2 (SEQ.ID.No:17) Pim IleAsnPro TyrArgLeuArgTyr-NH2 (SEQ.ID.No:17)] | 0 | 100 |
| 0.25 | < 0.1 | CC[C@H](C)[C@H](N)C(=O)N[C@H]1CCC(=O)NCCC[C@@H](C(=O)N[C@@H](Cc2ccc(O)cc2)C(=O)N[C@@H](CCCNC(=N)N)C(=O)N[C@@H](CC(C)C)C(=O)N[C@@H](CCCNC(=N)N)C(=O)N[C@@H](Cc2ccc(O)cc2)C(N)=O)NC(=O)[C@@H]2CCCN2C(=O)[C@@H](NC(=O)[C@@H](N)[C@@H](C)CC)CCC(=O)NCCC[C@@H](C(=O)N[C@@H](Cc2ccc(O)cc2)C(=O)N[C@@H](CCCNC(=N)N)C(=O)N[C@@H](CC(C)C)C(=O)N[C@@H](CCCNC(=N)N)C(=O)N[C@@H](Cc2ccc(O)cc2)C(N)=O)NC(=O)[C@@H]2CCCN2C1=O [Example 15, IleGluProOrnTyrArgLeuArgTyr-NH2,Cyclic(2,4'),(2',4)-Diamide] (I: H-IEP[Orn]YRLRY-NH2 / II: H-IEP[Orn]YRLRY-NH2; amide I:2-II:4, I:4-II:2; N-terminus assumed) | 0 | 100 |
| 0.25 | < 0.1 | CC[C@H](C)[C@H](N)C(=O)N[C@H]1CC(=O)NCCC[C@@H](C(=O)N[C@@H](Cc2ccc(O)cc2)C(=O)N[C@@H](CCCNC(=N)N)C(=O)N[C@@H](CC(C)C)C(=O)N[C@@H](CCCNC(=N)N)C(=O)N[C@@H](Cc2ccc(O)cc2)C(N)=O)NC(=O)[C@@H]2CCCN2C(=O)[C@@H](NC(=O)[C@@H](N)[C@@H](C)CC)CC(=O)NCCC[C@@H](C(=O)N[C@@H](Cc2ccc(O)cc2)C(=O)N[C@@H](CCCNC(=N)N)C(=O)N[C@@H](CC(C)C)C(=O)N[C@@H](CCCNC(=N)N)C(=O)N[C@@H](Cc2ccc(O)cc2)C(N)=O)NC(=O)[C@@H]2CCCN2C1=O [Example 16, IleAspProOrnTyrArgLeuArgTyrNH2,Cyclic(2,4'),(2',4)-Diamide] (I: H-IDP[Orn]YRLRY-NH2 / II: H-IDP[Orn]YRLRY-NH2; amide I:2-II:4, I:4-II:2; N-terminus assumed) | 0 | 100 |
|  | 17 | CC[C@H](C)[C@H](NC(=O)CCc1ccc(O)cc1)C(=O)N[C@@H](CC(N)=O)C(=O)N[C@@H](CC(C)C)C(=O)N[C@H](C(=O)N[C@@H](Cc1ccc(O)cc1)C(=O)N[C@@H](CCCNC(=N)N)C(=O)N[C@@H](CC(C)C)C(=O)N[C@@H](CCCNC(=N)N)C(=O)N[C@@H](Cc1ccc(O)cc1)C(N)=O)[C@@H](C)CC [Example 18, desNH2 TyrIleAsnLeuIleTyrArgLeuArgTyr-NH2] (Desaminotyrosyl-INLIYRLRY-NH2) | 28 | 62 |

| Compound | IC50 [1] [nM] | IC50 [2] [nM] | HEL CELLS % Fluor (c) [1] [%] | HEL CELLS % INHIB (b) [1] [%] |
| --- | --- | --- | --- | --- |
| IleCysProCysTyrArgLeuArgTyr-NH2,Cyclic(2,2'), (4,4')-Disulfide Dimer and IleCysProCysTyrArgLeuArgTyr-NH2,Cyclic(2,4'),(4,2')-Disulfide Dimer [Example 6] | 2 | 250 | 0 | 100 |
